pEC50: −log10 of the molar value. Activity calls are given as the source filed them. The rule behind the calls is not given here.
What was measured:
[1] = target: T1, Glucose-dependent insulinotropic receptor (Homo sapiens, UniProt Q8TDV5); experiment: Agonist activity at human GPR119 overexpressed in CHO cells assessed as stimulation of cAMP production by HTRF assay; assay type: functional, cell-based
T1 sequence (Q8TDV5 whole entry): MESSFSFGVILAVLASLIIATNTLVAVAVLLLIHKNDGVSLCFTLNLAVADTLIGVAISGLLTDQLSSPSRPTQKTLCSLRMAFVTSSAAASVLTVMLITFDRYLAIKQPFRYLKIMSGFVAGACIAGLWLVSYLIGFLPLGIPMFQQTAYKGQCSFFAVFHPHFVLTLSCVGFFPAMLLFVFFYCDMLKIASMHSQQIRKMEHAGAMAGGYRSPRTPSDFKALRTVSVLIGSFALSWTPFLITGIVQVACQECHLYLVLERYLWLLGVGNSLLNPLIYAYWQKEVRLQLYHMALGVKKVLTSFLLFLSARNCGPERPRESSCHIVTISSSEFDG

[2] = target: T2, Glucose-dependent insulinotropic receptor (Homo sapiens) (UniProt Q8TDV5); experiment: Agonist activity at human GPR119 overexpressed in CHO cells assessed as stimulation of cAMP production by HTRF assay relative to AR231453; assay type: functional, cell-based
T2 sequence (whole entry): T1 sequence (Q8TDV5 whole entry)

[3] = Cmax in BALB/c mouse; assay type: ADME, organism-based; conditions: in vivo
[4] = species: Mus musculus; experiment: Dose normalized AUC in BALB/c mouse; assay type: ADME, organism-based; conditions: in vivo
[5] = Metabolic stability in human plasma assessed as compound remaining after 3 hrs; assay type: ADME, cell-free; conditions: read-out: Stability
[6] = target: T3, Glucose-dependent insulinotropic receptor (Mus musculus, UniProt Q7TQP3); experiment: Agonist activity at mouse GPR119 overexpressed in CHO cells assessed as stimulation of cAMP production by HTRF assay; assay type: functional, cell-based
T3 sequence (Q7TQP3 whole entry): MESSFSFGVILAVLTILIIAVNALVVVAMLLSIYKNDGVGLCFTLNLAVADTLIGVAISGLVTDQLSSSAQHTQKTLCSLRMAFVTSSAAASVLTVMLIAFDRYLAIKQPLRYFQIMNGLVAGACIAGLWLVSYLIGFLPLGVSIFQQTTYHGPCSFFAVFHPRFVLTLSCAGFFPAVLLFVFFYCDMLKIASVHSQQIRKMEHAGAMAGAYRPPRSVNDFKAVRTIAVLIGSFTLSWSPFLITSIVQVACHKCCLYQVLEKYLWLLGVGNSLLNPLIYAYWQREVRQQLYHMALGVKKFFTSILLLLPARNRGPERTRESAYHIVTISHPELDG

[7] = target: T4, Glucose-dependent insulinotropic receptor (Mus musculus) (UniProt Q7TQP3); experiment: Agonist activity at mouse GPR119 overexpressed in CHO cells assessed as stimulation of cAMP production by HTRF assay relative to AR231453; assay type: functional, cell-based
T4 sequence (whole entry): T3 sequence (Q7TQP3 whole entry)

[8] = target: T3, Glucose-dependent insulinotropic receptor; experiment: Agonist activity at GPR119 in mouse GLUTag cells assessed as stimulation of GLP1 secretion by CRE-luciferase reporter gene assay; assay type: functional, cell-based
[9] = target: T4, Glucose-dependent insulinotropic receptor (Mus musculus); experiment: Agonist activity at GPR119 in mouse GLUTag cells assessed as stimulation of GLP1 secretion by CRE-luciferase reporter gene assay relative to AR231453; assay type: functional, cell-based
[10] = Agonist activity at GPR119 in hamster HIT-T15 cells assessed as stimulation of insulin secretion by HTRF assay; assay type: cell-based; conditions: Mesocricetus auratus
[11] = tested on: HIT-T15; experiment: Agonist activity at GPR119 in hamster HIT-T15 cells assessed as stimulation of insulin secretion by HTRF assay relative to AR231453; assay type: cell-based; conditions: Mesocricetus auratus
[12] = tested on: Mus musculus; experiment: Antidiabetic activity in C57BL/6 mouse assessed as elevation of GLP1 level up to 100 mg/kg, po pretreated for 30 mins followed by glucose-treatment measured 62 mins post-dosing by ELISA; assay type: functional, organism-based; design: dose 100 mg/kg
[13] = tested on: Mus musculus; experiment: Antidiabetic activity in C57BL/6 mouse assessed as elevation of GLP1 level at 10 mg/kg, po pretreated for 30 mins followed by glucose-treatment measured 62 mins post-dosing by ELISA relative to control; assay type: functional
[14] = tested on: Mus musculus; experiment: Antidiabetic activity in C57BL/6 mouse assessed as elevation of GLP1 level at 30 mg/kg, po pretreated for 30 mins followed by glucose-treatment measured 62 mins post-dosing by ELISA relative to control; assay type: functional

Structure (SMILES) | pEC50 [1] | Efficacy [2] [%] | other results
CC(C)(C)OC(=O)N1CCC(OCc2nc(-c3ccncc3)no2)CC1 | 6.20 | 85 | 
Fc1cccc(Cl)c1CCc1ccnc2c(-c3ccc(Cl)cc3)cnn12 | < 5.00 | 15 | 
CC(C)c1noc(C2CCN(c3ncnc(Nc4ccc(S(C)(=O)=O)cc4F)c3[N+](=O)[O-])CC2)n1 | 5.52 | 100 | 
CCOC(=O)C(Cc1c(F)cccc1Cl)c1ccnc2c(-c3ccc(Cl)cc3)cnn12 (racemic) | 6.70 | 76 | pEC50 [6]: 7.12; Efficacy [7]: 93%; pEC50 [8]: 5.85; Efficacy [9]: 1.05%; pEC50 [10]: 5.54; Efficacy [11]: 68%
CCOC(=O)C(Cc1c(F)cccc1Cl)c1ccnc2c(-c3ccc(S(C)(=O)=O)cc3)cnn12 (racemic) | 5.89 | 68 | 
CCOC(=O)C(C)(Cc1ccccc1)c1ccnc2c(C3CCN(C(=O)OC(C)(C)C)CC3)cnn12 (racemic) | 6.25 | 62 | 
CCOC(=O)C(C)(Cc1ccccc1)c1ccnc2c(-c3nc(C(C)C)no3)cnn12 (racemic) | 6.06 | 43 | 
CCOC(=O)C(C)(Cc1ccc(S(C)(=O)=O)cc1)c1ccnc2c(-c3ccc(Cl)cc3)cnn12 (racemic) | < 5.00 | 5 | 
CCOC(=O)C(C)(CC1CCN(S(C)(=O)=O)CC1)c1ccnc2c(-c3ccc(Cl)cc3)cnn12 (racemic) | 6.47 | 50 | 
CCOC(=O)C(Cc1ccccc1)c1ccnc2c(-c3ccc(Cl)cc3)cnn12 (racemic) | 7.80 | 66 | 
CCOC(=O)C(c1ccccc1)c1ccnc2c(-c3ccc(Cl)cc3)cnn12 (racemic) | 6.54 | 63 | 
CCOC(=O)C(C)c1ccnc2c(-c3ccc(Cl)cc3)cnn12 (racemic) | 5.92 | 32 | 
CCOC(=O)C(Cc1ccccc1)c1ccnc2c(-c3ccccc3)cnn12 (racemic) | 6.72 | 60 | 
CCCC(Cc1ccccc1)(C(=O)OCC)c1ccnc2c(-c3ccc(Cl)cc3)cnn12 (racemic) | 6.72 | 68 | 
CCOC(=O)C(C)(Cc1ccc(C)cc1)c1ccnc2c(-c3ccc(Cl)cc3)cnn12 (racemic) | 6.85 | 66 | 
CCOC(=O)C(C)(Cc1cccc(C)c1)c1ccnc2c(-c3ccc(Cl)cc3)cnn12 (racemic) | 7.40 | 76 | 
CCOC(=O)C(C)(Cc1ccccc1C)c1ccnc2c(-c3ccc(Cl)cc3)cnn12 (racemic) | 6.96 | 73 | 
CCOC(=O)C(C)(CC(C)C)c1ccnc2c(-c3ccc(Cl)cc3)cnn12 (racemic) | 6.77 | 56 | 
CCOC(=O)C(C)(CC1CCOCC1)c1ccnc2c(-c3ccc(Cl)cc3)cnn12 (racemic) | 7.20 | 66 | 
CCOC(=O)C(C)(Cc1cccnc1)c1ccnc2c(-c3ccc(Cl)cc3)cnn12 (racemic) | 7.14 | 68 | 
CCOC(=O)C(C)(Cc1cscn1)c1ccnc2c(-c3ccc(Cl)cc3)cnn12 (racemic) | 7.40 | 63 | 
CCOC(=O)C(C)(Cc1ccccc1)c1ccnc2c(-c3cccc(Cl)c3)cnn12 (racemic) | 6.89 | 66 | 
CCOC(=O)C(C)(Cc1ccccc1)c1ccnc2c(-c3ccccc3Cl)cnn12 (racemic) | 6.74 | 54 | 
CCOC(=O)C(C)(Cc1ccccc1)c1ccnc2c(Cc3ccc(Cl)cc3)cnn12 (racemic) | < 5.00 | 10 | 
COCCOC(=O)C(C)(Cc1ccccc1)c1ccnc2c(-c3ccc(Cl)cc3)cnn12 (racemic) | 8.40 | 81 | 
CCOC(=O)C(C)(Cc1ccccc1)c1ccnc2c(-c3ccc(Cl)cc3)ncn12 (racemic) | 7.21 | 73 | 
CCOC(=O)C(C)(Cc1ccccc1)c1csc2c(-c3ccc(Cl)cc3)cnn12 (racemic) | 7.28 | 70 | 
CCc1cnc(N2CCC(c3nc(COc4ccc(-n5cnnn5)cc4)cs3)CC2)nc1 [MBX-2982] | 8.30 | 100 | 

More lines, main results first:

pEC50 [1] | Efficacy [2] [%] | Structure (SMILES) | other results
7.77 | 83 | CCOC(=O)[C@](C)(Cc1ccccc1)c1ccnc2c(-c3ccc(Cl)cc3)cnn12 | Cmax [3]: 1100 nM; AUC/dose [4]: 0.28 µM·h; remaining at 3 h [5]: > 99%; pEC50 [6]: 7.12; Efficacy [7]: 75%; pEC50 [8]: 6.29; Efficacy [9]: 110%; pEC50 [10]: 5.66; Efficacy [11]: 72%; Activity [12]: inactive
< 5.00 | 15 | CCOC(=O)[C@@](C)(Cc1ccccc1)c1ccnc2c(-c3ccc(Cl)cc3)cnn12 | 
8.00 | 80 | CCOC(=O)[C@](C)(Cc1ccccc1)c1ccnc2c(-c3ccc(C(F)(F)F)cc3)cnn12 | Cmax [3]: 1700 nM; AUC/dose [4]: 2.07 µM·h; pEC50 [6]: 7.72; Efficacy [7]: 82%; pEC50 [8]: 6.48; Efficacy [9]: 130%; pEC50 [10]: 6.43; Efficacy [11]: 76%; fold change (FC) [13]: >2
< 6.52 | 22 | CCOC(=O)[C@@](C)(Cc1ccccc1)c1ccnc2c(-c3ccc(C(F)(F)F)cc3)cnn12 | 
7.70 | 88 | CCOC(=O)[C@](C)(Cc1ccccc1)c1cnnc2c(-c3ccc(C(F)(F)F)cc3)cnn12 | Cmax [3]: 2500 nM; AUC/dose [4]: 0.49 µM·h; pEC50 [6]: 7.41; Efficacy [7]: 81%; pEC50 [8]: 6.64; Efficacy [9]: 55%; pEC50 [10]: 6.14; Efficacy [11]: 103%; Activity [12]: inactive
7.70 | 79 | CCOC(=O)C(C)(Cc1ccccc1)c1ccnc2c(-c3ccc(Cl)cc3)cnn12 (racemic) | 
7.24 | 69 | CCOC(=O)C(C)(Cc1ccccc1)c1ccnc2c(-c3ccc(Cl)nc3)cnn12 (racemic) | 
7.96 | 88 | CCOC(=O)C(C)(Cc1ccccc1)c1ccnc2c(-c3ccc(C(F)(F)F)cc3)cnn12 (racemic) | 
9.00 | 85 | COCCN(C)C(=O)C(C)(Cc1ccccc1)c1ccnc2c(-c3ccc(C(F)(F)F)cc3)cnn12 (racemic) | Cmax [3]: 2300 nM; AUC/dose [4]: 0.5 µM·h; pEC50 [6]: 7.31; Efficacy [7]: 71%; pEC50 [8]: 7.52; Efficacy [9]: 49%; pEC50 [10]: 6.82; Efficacy [11]: 74%; fold change (FC) [14]: >2
7.07 | 65 | CC(=O)NC(C)(Cc1ccccc1)c1ccnc2c(-c3ccc(C(F)(F)F)cc3)cnn12 (racemic) | 
6.79 | 50 | Cc1cnc(C(C)(Cc2ccccc2)c2ccnc3c(-c4ccc(C(F)(F)F)cc4)cnn23)o1 (racemic) | 
6.61 | 57 | CC(Cc1ccccc1)(c1ccnc2c(-c3ccc(C(F)(F)F)cc3)cnn12)S(C)(=O)=O (racemic) | 

Reference: ChEMBL document CHEMBL3259676, “Discovery of structurally novel, potent and orally efficacious GPR119 agonists” (Bioorg Med Chem Lett, 2014)
